According to article PMC4251536 (Journal of Natural Products, 2014):

Assays:
[1] = test system: human lung adenocarcinoma cells; details: cited from earlier work
[2] = test system: voltage-gated sodium channels (VGSCs); format: cell-based, mouse; details: veratridine-stimulated Na+ influx, murine cerebrocortical neurons
[3] = test system: sodium ion channel in Neuro-2a cells; details: read-out: IC50, sodium ion channel blocking activity (veratridine-induced sodium influx), natural product; cited from earlier work

Question: With `C[C@@H]1CCCC(=O)N(C)/C=C/CC[C@@H](C)C(=O)O[C@@H](C(C)(C)C)C1` [compound 1, (−)-palmyrolide A] as the compound, how does the “cytotoxicity (in words)” value [1] read?
Answer: Its value is “no appreciable cytotoxicity”.

Question: And the “fold more potent than the other analogues tested” value [2]?
Answer: The value was 3–9 fold.

Question: And the IC50 [3]?
Answer: Its IC50 is 5.2 µM.

Question: Which “fold more potent than the other analogues tested” value [2] does the source give for `C[C@H]1CCCC(=O)N(C)/C=C/CC[C@H](C)C(=O)O[C@H](C(C)(C)C)C1` [compound 3, (+)-palmyrolide A] here?
Answer: The value was 3–9 fold.

Question: For `C[C@@H]1CCCC(=O)N(C)CCCC[C@@H](C)C(=O)O[C@@H](C(C)(C)C)C1` [compound 5, 17,18-Dihydropalmyrolide A], which “fold more potent than the other analogues tested” value [2] is on record?
Answer: The value was 3–9 fold.
